Data reported in patent US20150258202A1, “ANTHOCYANIDIN COMPLEX FOR THE TREATMENT OF MULTIPLE MYELOMA” (priority 2012, published 2015).

Tests used:
[1] = Solubility of delphinidin chloride in aqueous cyclodextrin solutions (complexing); assay type: physicochemical; conditions: pure water, cyclodextrin concentration 0; stirred 30° C. 20 h in the dark, filtered 0.22 μm
Experimental: A reversed-phase HPLC method was used to determine the delphinidin chloride content in the delphinidin-containing compositions.
In this example, the complexing of delphinidin by various cyclodextrins and the solubility of the complex in aqueous solution are investigated.
Neutral aqueous solutions were prepared comprising 10% by weight of the respective cyclodextrin.
Glass flasks were filled with 5 ml each of aqueous cyclodextrin solution and pure water. An excess of delphinidin chloride was then added.
The suspensions were stirred at 30° C. for 20 h in the dark. The suspension was then filtered through a membrane filter of 0.22 μm pore size.

[2] = Stability trials in aqueous solution (0.9% NaCl, 37° C., delphinidin content by HPLC); assay type: physicochemical; conditions: 0.9% NaCl solution, dark
Experimental: To determine the delphinidin chloride content in the delphinidin-containing solutions, a reversed-phase HPLC method was used similar to the one already described above. The following reagents were used in this case:
The solutions were prepared at room temperature and subsequently stored in the dark at 37° C. in closed vials.
The delphinidin content was determined after 1, 2, 3 and 4 h. The table below gives the content determined as a percentage of the starting concentration stated above.
The determination of the delphinidin content in the samples was calculated with the aid of the Agilent ChemStation software using the calibration with the external standard described.

[3] = tested on: mouse myeloma cell line MOPC-315; experiment: FACS analysis of dead cells stained with propidium iodide; assay type: cell-based; conditions: summary of BLI measurement and FACS analysis
Source text: 1. Test Line and Experimental Setup • In the in vitro experiments, the effect of the delphinidin+sulfobutyl ether β-cyclodextrin complex (delphinidin+SBEBCD below) and delphinidin on the mouse myeloma cell line MOPC-315 (ATTC catalog no. TIB-23) was investigated by BLI (=bioluminescence imaging) measurement and FACS (fluorescence activated cell sorting) analysis described below. The methods used (BLI measurement and FACS analysis) are known to those skilled in the art from patent and technical literature, for example, from the FACS-based patent DE 1815352 C1.

For `Oc1cc(O)c2cc(O)c(-c3cc(O)c(O)c(O)c3)[o+]c2c1.[Cl-]` [Delphinidin chloride], the “Delphinidin chloride (solubility achievable)” value [1] was 0.07 mg/mL, the “Delphinidin content as a percentage of the starting concentration” value (shortened to “Delphinidin content as a percentage”) ([2]; 0 h) was 100% and the “Delphinidin content as a percentage” value ([2]; 1 h) was 8.3%. For the same molecule, the “Delphinidin content as a percentage” value ([2]; 2 h) was 6.5%, the “Delphinidin content as a percentage” value ([2]; 3 h) was 5.6% and the “Delphinidin content as a percentage” value ([2]; 4 h) was 5.1%. The “Killing of myeloma cells in vitro” value [3] was “kill human myeloma cells in vitro” and the “Dose dependence of cell killing” value ([3]; higher doses) was “virtually all cells are killed at higher doses”.
